Assay results reported in patent publication US20250313559A1 (Bayer Aktiengesellschaft, priority 2024, published 2025).

How the values were obtained:
[1] = system: natriuretic peptide levels; details: ARTS-HF trial, phase 2; cited from earlier work
[2] = system: patients with HF and LVEF ≥40%; assay: […]-HF (Example 2) health status: KCCQ-TSS, NYHA class, EQ-5D-5L; assay type: in vivo, human; details: adjusted for baseline value, geographic region
Protocol: Kansas City Cardiomyopathy Questionnaire (KCCQ) is a standardized patient reported outcomes (PRO) questionnaire which assesses symptoms, physical and social limitations, and quality of life in patients with heart failure (HF). Patients are asked to recall how their HF impacted their life over a 2-week recall period.
Total HF events was analyzed using an LWYY model in a similar fashion to the primary endpoint. The percentage of participants with improvement in NYHA class from Baseline to Month 12, was analyzed with a logistic regression model including factors for treatment group and stratification levels. Patients that died or are lost to follow-up at month 12 was considered to had not improved. The absolute change from baseline including measurements up to Month 12 of the TSS of the KCCQ, was analyzed by a repeated measures mixed model including the factors treatment group, baseline, visit, baseline-by-visit interaction, and factors for the stratification levels. The comparison assumed a common treatment effect across Month 6, 9 and 12. […] The composite renal endpoint and all-cause mortality was analyzed using a stratified log-rank test for testing and a stratified Cox proportional hazards model for obtaining a point estimate with 95% confidence interval. […]

[3] = system: participants with chronic kidney disease and Type-2 diabetes; details: cited from earlier work
[4] = system: patients across cardio-kidney-metabolic disease states
[5] = cited from earlier work
[6] = system: patients with HF and LVEF ≥40%; assay: […]-HF (Example 2) safety: adverse events, hyperkalemia, serum potassium, eGFR, creatinine, vital signs; assay type: in vivo, human; details: number of patients (%); for Any Serious Adverse Events: treatment-emergent; for Elevated Serum Creatinine >[…] / Elevated Serum Creatinine ≥3.0 mg/dl / Elevated Serum Potassium >6.0 mmol/liter / Elevated Serum Potassium >[…] / Reduced Serum Potassium < […] / Systolic Blood Pressure <100 mm Hg: patients with at least one assessment
Source text: Safety assessments includes adverse events (AEs), serious adverse events (SAEs), vital signs including heart rate and blood pressure assessment. Safety laboratory tests includes blood chemistry, hematology and urinalysis.
The following safety procedures and variables have been assessed during the study: • SAEs and AEs leading to discontinuation of treatment with study intervention; • Change in body weight from baseline; • Change in serum potassium from baseline; • Number of participants with hyperkalemia (serum potassium >5.5 mmol/L); • Number of participants with severe hyperkalemia (serum potassium >6.0 mmol/L); • Number of participants with hospitalization for hyperkalemia; • Number of participants permanently discontinuing study intervention due to Hyperkalemia; • Change in vital signs (heart rate, SBP and DBP) from baseline; • Change in renal function measured by eGFR (CKD-EPI formula) change from baseline; • Number of participants with hospitalization for worsening of renal function; • Number of participants permanently discontinuing study intervention due to worsening of renal function; and • Changes in laboratory values from baseline.
AEs that occurred or worsened after the first dose of study drug and up to 3 days after the last dose of study drug have been considered as treatment-emergent AEs (TEAEs).
An overall summary of all AEs and treatment emergent AEs (TEAEs) has been generated by treatment group. The number and percentage of patients with TEAEs, post-treatment AEs occurring more than 3 days after last intake of study intervention, treatment-emergent SAEs, treatment-emergent study intervention-related AEs, treatment-emergent study intervention-related SAEs, TEAEs causing premature and permanent discontinuation of study intervention, treatment-emergent non-serious AEs, TEAEs by maximum intensity, drug-related TEAEs by maximum intensity has been summarized by treatment group using Medical Dictionary for Regulatory Activity (MedDRA) terms grouped by Primary System Organ Class and Preferred Term.
The number of patients with treatment-emergent (until 3 days after last study intervention administration) abnormal laboratory values above or below the normal range has been tabulated by the laboratory parameter and treatment group.
Summary statistics including changes from baseline have been calculated by treatment group and visit for all quantitative laboratory parameters, i.e. for hematology, clinical chemistry and urinalysis. Geometric statistics and ratios to baseline has been presented for urinary albumin-to-creatinine ratio (UACR), creatinine, and NT-proBNP, instead of arithmetic statistics with changes from baseline.
The following special safety parameters have been further assessed by displaying the number and percentage of patients with safety events as described below by treatment group, visit, and for any time on treatment (including unscheduled assessments) and until 3 days after last study intervention administration. This has also been performed by stratification factors.

[7] = FINE-HEART pooled safety population, finerenone n = 9,482, treatment-emergent
[8] = FINE-HEART pooled safety population, n = 9,482
[9] = FINE-HEART pooled, n = 9,482, investigator reported adverse events
[10] = No SGLT2i Use, finerenone n = 2,601

CCOc1ncc(C)c2c1[C@H](c1ccc(C#N)cc1OC)C(C(N)=O)=C(C)N2 [finerenone, (4S)-4-(4-cyano-2-methoxyphenyl)-5-ethoxy-2,8-dimethyl-1,4-dihydro-1,6-naphthyridine-3-carboxamide]
treatment effects on natriuretic peptide levels [1]: dose dependent | Change in KCCQ-TSS from baseline to 12 months, difference in mean (95% CI) finerenone vs placebo ([2]; bilirubin Tertile 2 0.5-0.6 mg/dL): 0.69 (−0.92 to 2.30) | Change in KCCQ-TSS from baseline to 12 months, difference in mean (95% CI) finerenone vs placebo ([2]; bilirubin Tertile 3 ≥0.7 mg/dL): 3.15 (1.52 to 4.77) | cardiovascular events, including heart failure hospitalizations [3]: reduced | kidney disease progression [3]: reduced | Any adverse event leading to treatment discontinuation, % of patients ([4]; FINE-HEART pooled safety population, finerenone n = 9,482): (5.4%) | Any serious adverse event, % of patients [4, 7]: (34.6%) | Any serious adverse event, number of patients [4, 7]: 3,283 | Acute kidney injury leading to hospitalization, % of patients [4, 8]: (1.5%) | Acute kidney injury leading to hospitalization, number of patients [4, 8]: 143 | Acute kidney injury leading to treatment discontinuation, % of patients [4, 8]: (0.2%) | Acute kidney injury leading to treatment discontinuation, number of patients [4, 8]: 15 | Acute kidney injury, % of patients [4, 8]: (3.6%) | Gynecomastia or breast hyperplasia, % of patients [4, 8]: (0.2%) | Gynecomastia or breast hyperplasia, number of patients [4, 8]: 16 | Systolic blood pressure<100 mmHg, % of patients [4, 8]: (11.1%) | Systolic blood pressure<100 mmHg, number of patients [4, 8]: 1,040 | Any potassium >6.0 mmol/L, % of patients ([4]; FINE-HEART pooled, n = 9,482, central laboratory measurements): (3.3%) | Hyperkalemia leading to death, % of patients [4, 9]: (0.0%) | Hyperkalemia leading to death, number of patients [4, 9]: 0 | Hyperkalemia leading to hospitalization, % of patients [4, 9]: (0.8%) | Hyperkalemia leading to hospitalization, number of patients [4, 9]: 80 | Hyperkalemia leading to treatment discontinuation, % of patients [4, 9]: (1.3%) | Hyperkalemia, % of patients [4, 9]: (12.8%) | Hyperkalemia, number of patients [4, 9]: 1,216 | tissue distribution between the heart and kidney ([5]; compared with steroidal mineralocorticoid receptor antagonists): more balanced | renal elimination ([5]; in vivo): less than 1% | Any Adverse Events leading to Treatment Discontinuation [6, 10]: 90 (3.5%) | Hyperkalemia leading to Treatment Discontinuation [6, 10]: 12 (0.5%) | Investigator Reported Hyperkalemia [6, 10]: 246 (9.5%) | Investigator Reported Hyperkalemia leading to Hospitalization [6, 10]: 14 (0.5%) | Any Serious Adverse Events [6, 10]: 995 (38.3%) | Elevated Serum Creatinine >[…] ([6]; No SGLT2i Use): 120 (4.8%) | Elevated Serum Creatinine ≥3.0 mg/dl ([6]; No SGLT2i Use): 50 (2.0%) | Elevated Serum Potassium >6.0 mmol/liter ([6]; No SGLT2i Use): 76 (3.0%) | Elevated Serum Potassium >[…] ([6]; No SGLT2i Use): 358 (14.2%) | Reduced Serum Potassium < […] ([6]; No SGLT2i Use): 118 (4.7%) | Systolic Blood Pressure <100 mm Hg ([6]; No SGLT2i Use): 435 (17.2%) | Any Adverse Events leading to Treatment Discontinuation ([6]; SGLT2i Use, finerenone n = 392): 6 (1.5%) | Hyperkalemia leading to Treatment Discontinuation ([6]; SGLT2i Use, finerenone n = 392): 1 (0.3%) | Investigator Reported Hyperkalemia ([6]; SGLT2i Use, finerenone n = 392): 43 (11.0%) | Investigator Reported Hyperkalemia leading to Hospitalization ([6]; SGLT2i Use, finerenone n = 392): 2 (0.5%) | Any Serious Adverse Events ([6]; SGLT2i Use, finerenone n = 392): 162 (41.3%) | Elevated Serum Creatinine >[…] ([6]; SGLT2i Use): 21 (5.5%) | Elevated Serum Creatinine ≥3.0 mg/dl ([6]; SGLT2i Use): 7 (1.8%) | Elevated Serum Potassium >6.0 mmol/liter ([6]; SGLT2i Use): 10 (2.6%) | Elevated Serum Potassium >[…] ([6]; SGLT2i Use): 55 (14.5%) | Reduced Serum Potassium < […] ([6]; SGLT2i Use): 9 (2.4%) | Systolic Blood Pressure <100 mm Hg ([6]; SGLT2i Use): 103 (27.0%)
